Assay results: ChEMBL document CHEMBL1759889, “Susceptibility and mode of binding of the Mycobacterium tuberculosis cysteinyl transferase mycothiol ligase to tRNA synthetase inhibitors” (Bioorg Med Chem Lett, 2011)
The source made the active and inactive calls. The calls are words filed in the database; no cut-off is given here.

Columns and labels:
[1] = molecular target: T1, L-cysteine:1D-myo-inositol 2-amino-2-deoxy-alpha-D-glucopyranoside ligase (Mycobacterium tuberculosis, UniProt P9WJM9); assay: Binding affinity to Mycobacterium tuberculosis recombinant MBP-tagged MshC by isothermal titration calorimetry assay
T1 sequence (P9WJM9 whole entry): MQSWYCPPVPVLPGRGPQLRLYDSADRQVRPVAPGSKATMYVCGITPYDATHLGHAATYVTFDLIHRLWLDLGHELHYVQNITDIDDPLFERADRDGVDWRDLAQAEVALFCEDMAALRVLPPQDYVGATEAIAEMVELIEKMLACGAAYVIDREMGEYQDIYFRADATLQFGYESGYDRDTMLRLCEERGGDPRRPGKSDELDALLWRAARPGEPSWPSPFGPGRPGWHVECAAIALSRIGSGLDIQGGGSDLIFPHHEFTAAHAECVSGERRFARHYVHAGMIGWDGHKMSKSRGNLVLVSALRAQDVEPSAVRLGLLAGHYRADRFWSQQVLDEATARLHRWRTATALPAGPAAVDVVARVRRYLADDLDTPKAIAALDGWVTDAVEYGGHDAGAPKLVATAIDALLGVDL

[2] = molecular target: T2, L-cysteine:1D-myo-inositol 2-amino-2-deoxy-alpha-D-glucopyranoside ligase (Mycobacterium tuberculosis) (UniProt P9WJM9); assay: Binding affinity to Mycobacterium tuberculosis recombinant MBP-tagged MshC by STD-NMR analysis
T2 sequence (whole entry): T1 sequence (P9WJM9 whole entry)

[3] = molecular target: T1, L-cysteine:1D-myo-inositol 2-amino-2-deoxy-alpha-D-glucopyranoside ligase; assay: Inhibition of Mycobacterium tuberculosis recombinant MBP-tagged MshC assessed as formation of fluorescently labeled Cys-GlcN-Ins by HPLC
[4] = molecular target: T2, L-cysteine:1D-myo-inositol 2-amino-2-deoxy-alpha-D-glucopyranoside ligase (Mycobacterium tuberculosis); assay: Binding affinity to Mycobacterium tuberculosis recombinant MBP-tagged MshC by transferred NOESY analysis

Row | Structure (SMILES) | Kd [1] [nM] | Activity [2] | IC50 [3] [mM] | Activity [4]
1 | Nc1ncnc2c1ncn2[C@@H]1O[C@H](COS(=O)(=O)NC(=O)[C@@H](N)CS)[C@@H](O)[C@H]1O | 48.5 | inactive | 5e-05 | –
2 | C[C@@H]1Cc2c(Cl)cc(C(=O)N[C@@H](Cc3ccccc3)C(=O)O)c(O)c2C(=O)O1 [3R14S-OCHRATOXIN A] | – | – | 2.5 | –
3 | Nc1ncnc2c1ncn2[C@@H]1O[C@H](COS(=O)(=O)NC(=O)[C@@H](N)CO)[C@@H](O)[C@H]1O | – | – | 5 | –
4 | Nc1ncnc2c1ncn2[C@@H]1O[C@H](COS(=O)(=O)NC(=O)[C@@H](N)CC(=O)O)[C@@H](O)[C@H]1O | – | inactive | 1.2 | inactive
5 | N[C@H]1CCC[C@H]1C(=O)O | – | – | > 4 | –
6 | C/C(=C\C(=O)OCCCCCCCCC(=O)O)C[C@@H]1OC[C@H](C[C@@H]2O[C@H]2[C@@H](C)[C@H](C)O)[C@@H](O)[C@H]1O [MUPIROCIN] | – | – | > 5 | –
7 | C[C@@H]1C[C@H](C)C[C@H](C)[C@@H](O)CC(=O)O[C@H]([C@@H]2CCC[C@H]2C(=O)O)C/C=C/C=C(/C#N)[C@H](O)[C@@H](C)C1 [BORRELIDIN] | – | – | > 2 | –
